How the values were obtained:
[1] = PXRD study of crystalline form stability of uncapped samples in a 40° C./75% RH stability chamber; format: physicochemical; details: at least 4 weeks
Protocol: PXRD diffractograms were recorded on a Bruker-AXS D8 Discover powder X-ray diffractometer (Bruker-AXS, Karlsruhe, Germany). The X-rays were generated using an Incoatec Micro-focus X-ray source (IpSTube: Cu tube with λ=1.54060 Å) with a voltage of 50 kV and current of 1.00 mA, using a micro mask 0.3 mm plug-in pinhole microslit and a short UBC 45 mm long collimator with a 0.3 mm diameter. For each sample, one frame was collected using a still scan with a Pilatus 3R-100K-A area detector at the distance of 154.72 mm from the sample. Raw data were evaluated using the program DIFFRAC.EVA (Bruker-AXS, Karlsruhe, Germany).

[2] = Intrinsic dissolution rate (IDR) measurement, Wood apparatus; format: physicochemical; details: 900 mL distilled water, 37° C., 50 rpm
Protocol: Intrinsic dissolution rate (IDR) measurements were performed using a Wood apparatus (Pharma Test PT-DT8 instrument) having a bath temperature of 37° C. Samples were prepared by compressing 200-400 mg samples at 1.5 metric tons for 1 minute. A dissolution medium consisting of 900 mL distilled water, and rotation speed of 50 rpm, was used for each experiment.

[3] = system: Men with Prostate Cancer on Androgen Deprivation Therapy; details: 50 mg of zuclomiphene citrate, interim Phase 2 results; cited from earlier work

zuclomiphene fumarate [zuclomiphene fumarate Form APO-I]
change in the crystalline form (PXRD) [1]: no change in the crystalline form occurred

zuclomiphene sulphate [zuclomiphene sulphate Form APO-I]
change in the crystalline form (PXRD) [1]: no change in the crystalline form occurred

zuclomiphene L-malate [zuclomiphene L-malate Form APO-I]
IDR (intrinsic dissolution rate) [2]: 3.75 mg min^−1 cm^−2
change in the crystalline form (PXRD) [1]: no change in the crystalline form occurred

zuclomiphene L-tartrate [zuclomiphene L-tartrate Form APO-I]
IDR (intrinsic dissolution rate) [2]: 2.37 mg min^−1 cm^−2
change in the crystalline form (PXRD) [1]: no change in the crystalline form occurred

zuclomiphene tosylate [zuclomiphene tosylate Form APO-I]
change in the crystalline form (PXRD) [1]: no change in the crystalline form occurred

zuclomiphene citrate
moderate to severe hot flashes, change from baseline [3]: statistically significant decrease

zuclomiphene succinate [zuclomiphene succinate Form APO-I]
change in the crystalline form (PXRD) [1]: no change in the crystalline form occurred

zuclomiphene phosphate [zuclomiphene phosphate Form APO-I]
change in the crystalline form (PXRD) [1]: no change in the crystalline form occurred

Source: US20210292272A1, “Salts of Zuclomiphene” (Apotex Inc., priority 2020, published 2021)
